Results from US9012433B2, “Substituted tetracycline compounds” (Paratek Pharmaceuticals, Inc., priority 2006, dated 2015).
Values after ≈ are worked out from the molar mass of the structure shown.

Columns and labels:
[1] = test system: B. thetaiotaomicron ATCC 29741; assay: Antibacterial MIC, CLSI broth microdilution; assay type: cell-based; details: Bacteroides thetaiotaomicron, ATCC29741; 35° C., 18-24 hours; read-out: MIC B. thetaiotaomicron ATCC 29741
Experimental: (§1) Grain (−) and gram (+) antibacterial minimum inhibitory concentration (MIC) values (μg/mL) were obtained using CLSI methodology for anti-bacterial susceptibility testing. On each day of testing, serial dilutions of compounds were prepared in microdilution plates using a Tecan robotic workstation. Mueller Hinton broth cultures of representative sensitive and resistant gram negative strains were grown or adjusted to match the turbidity of a 0.5 McFarland standard. 1:200 dilutions were made in an appropriate broth (cation supplemented Mueller Hinton broth) to allow a final inoculum of 1×10^5 cfu. Plates were incubated at 35° C. in ambient air for 18-24 hours, were read spectrophotometrically and checked manually for evidence of bacterial growth. The lowest dilution of compound that inhibited growth was recorded as the MIC. Lysed horse blood was used to supplement broth for testing S. pneumoniae. The MIC's for each compound were assessed against S. aureus, S. pneumoniae, P. acnes, E. coli and B. theta.

[2] = test system: E. coli ATCC 25922; assay: Antibacterial MIC, CLSI broth microdilution; assay type: cell-based; details: Escherichia coli, ATCC25922; 35° C., 18-24 hours
Experimental: as §1

[3] = test system: E. coli MG 1655; assay: Antibacterial MIC, CLSI broth microdilution; assay type: cell-based; details: Escherichia coli, MG1655; 35° C., 18-24 hours
Experimental: as §1

[4] = test system: P. acnes ATCC 11827; assay: Antibacterial MIC, CLSI broth microdilution; assay type: cell-based; details: Cutibacterium acnes, ATCC11827; 35° C., 18-24 hours
Experimental: as §1

[5] = test system: P. acnes ATCC 6919; assay: Antibacterial MIC, CLSI broth microdilution; assay type: cell-based; details: Cutibacterium acnes, ATCC6919; 35° C., 18-24 hours
Experimental: as §1

[6] = test system: S. aureus RN450; assay: Antibacterial MIC, CLSI broth microdilution; assay type: cell-based; details: Staphylococcus aureus, RN450; 35° C., 18-24 hours
Experimental: as §1

[7] = test system: S. pneumoniae 157E - Strep; assay: Antibacterial MIC, CLSI broth microdilution; assay type: cell-based; details: Streptococcus pneumoniae, 157ESTREP; 35° C., 18-24 hours; lysed horse blood
Experimental: as §1

[8] = in vitro; assay type: cell-based
Experimental: Mammalian cell cytotoxicity was assessed to evaluate potential in vivo risks associated with the tetracycline compounds of the invention. A soluble, non-toxic redox dye (“Resazurin”; Alamar Blue) was used to assess a tetracycline compound's effect on cellular metabolism. At the onset of the experiment, cultures of mammalian COS-1 or CHO cells were washed, trypsinized, and harvested. […] On the next day, serial dilutions of test drug were prepared under sterile conditions and transferred to cell plates. Plates were then incubated under the above conditions for 24 hours. Following the incubation period, the media/drug was aspirated, and 50 μL of resazurin was added. Plates were then incubated under the above conditions for 2 hours and then in the dark at room temperature for an additional 30 minutes. Fluorescence measurements were taken (excitation 535 nm, emission 590 nm) and toxic effects in treated versus control cells were compared based on the degree of fluorescence in each well.

[9] = test system: S. aureus RN450; assay: In vivo anti-bacterial activity, S. aureus model; details: Staphylococcus aureus, sc; mice, lethal IP S. aureus RN450, single subcutaneous dose 5 mg/kg, 24 hours; read-out: Percent Survival
Experimental: Groups of five mice were injected intraperitoneally with a lethal dose of S. aureus RN450 in a medium of mucin. Mice were evaluated at 24 hours to determine survival. […] In some instances, a dose response study was performed with the compound such that a PD50 (a dose of compound that protects 50% of the animals) could be calculated.

SMILES | MIC [1] [µg/mL] | MIC [2] [µg/mL] | MIC [3] [µg/mL] | MIC [4] [µg/mL] | MIC [5] [µg/mL] | MIC [6] [µg/mL] | MIC [7] [µg/mL] | IC50 at 24 h ([8]; African green monkey) [µg/mL] | IC50 at 24 h ([8]; Chinese hamster) [µg/mL] | responders at 5 mg/kg [9] [%]
CCONCc1ccc(O)c2c1C[C@H]1C[C@H]3[C@H](N(C)C)C(O)=C(C(N)=O)C(=O)[C@@]3(O)C(O)=C1C2=O [AA, (4S,4aS,5aR,12aS)-4-Dimethylamino-7-(ethoxyamino-methyl)-3,10,12,12a-tetrahydroxy-1,11-dioxo-1,4,4a,5,5a,6,11,12a-octahydro-naphthacene-2-carboxylic acid amide] | 4 to 8 (≈ 8.2 to 16.4 µM) | 4 to 8 (≈ 8.2 to 16.4 µM) | 4 to 8 (≈ 8.2 to 16.4 µM) | < 4 | < 4 | < 4 | < 4 | > 75 | > 75 | 100
CN(C)[C@@H]1C(O)=C(C(N)=O)C(=O)[C@@]2(O)C(O)=C3C(=O)c4c(O)ccc(CN5CCCCO5)c4C[C@H]3C[C@@H]12 [DR] | 4 to 8 (≈ 7.79 to 15.6 µM) | 4 to 8 (≈ 7.79 to 15.6 µM) | > 8 | < 4 | < 4 | < 4 | < 4 | 35 to 75 (≈ 68.2 to 146 µM) | 35 to 75 (≈ 68.2 to 146 µM) | –
CN(C)CC/C(=N\OC(C)(C)C)c1ccc(O)c2c1C[C@H]1C[C@H]3[C@H](N(C)C)C(O)=C(C(N)=O)C(=O)[C@@]3(O)C(O)=C1C2=O [O] | < 4 | < 4 | < 4 | < 4 | < 4 | < 4 | < 4 | 35 to 75 (≈ 59.9 to 128 µM) | < 35 | –
CN(C)[C@@H]1C(O)=C(C(N)=O)C(=O)[C@@]2(O)C(O)=C3C(=O)c4cccc(-c5ncccn5)c4C[C@H]3C[C@@H]12 [S] | > 8 | > 8 | > 8 | 4 to 8 (≈ 8.39 to 16.8 µM) | 4 to 8 (≈ 8.39 to 16.8 µM) | < 4 | < 4 | > 75 | > 75 | –
CCO/N=C(/CCN(C)C)c1ccc(O)c2c1C[C@H]1C[C@H]3[C@@H](N(C)C)C(O)=C(C(N)=O)C(=O)[C@@]3(O)C(O)=C1C2=O [AN, (4R,4aS,5aR,12aS)-4-Dimethylamino-7-(3-dimethylamino-1-ethoxyimino-propyl)-3,10,12,12a-tetrahydroxy-1,11-dioxo-1,4,4a,5,5a,6,11,12a-octahydro-naphthacene-2-carboxylic acid amide] | 4 to 8 (≈ 7.19 to 14.4 µM) | < 4 | < 4 | < 4 | < 4 | < 4 | < 4 | > 75 | > 75 | –

Second part, led by results:

MIC [1] [µg/mL] | MIC [2] [µg/mL] | MIC [3] [µg/mL] | MIC [4] [µg/mL] | MIC [5] [µg/mL] | MIC [6] [µg/mL] | MIC [7] [µg/mL] | IC50 at 24 h ([8]; African green monkey) [µg/mL] | IC50 at 24 h ([8]; Chinese hamster) [µg/mL] | SMILES | responders at 5 mg/kg [9] [%]
4 to 8 (≈ 7.76 to 15.5 µM) | 4 to 8 (≈ 7.76 to 15.5 µM) | > 8 | < 4 | < 4 | < 4 | < 4 | < 35 | < 35 | CN(C)[C@@H]1C(O)=C(C(N)=O)C(=O)[C@@]2(O)C(O)=C3C(=O)c4c(O)ccc(CNOC(C)(C)C)c4C[C@H]3C[C@@H]12 [AB] | –
4 to 8 (≈ 7.39 to 14.8 µM) | > 8 | > 8 | < 4 | < 4 | < 4 | 4 to 8 (≈ 7.39 to 14.8 µM) | > 75 | > 75 | CN(C)[C@H]1C(O)=C(C(N)=O)C(=O)[C@@]2(O)C(O)=C3C(=O)c4c(O)ccc(CNOCC(F)(F)F)c4C[C@H]3C[C@@H]12 [EA] | –
